pIC50: −log10 of the molar value.

In the assay the test system is Hepatitis B virus. The assay is described as follows: Antiviral activity against HBV infected in human HepDES19 cells assessed as reduction in HBV cccDNA production by measuring inhibition of HBeAg secretion incubated for 5 days by ELISA. The assay is classed as functional, organism-based. Conditions: HepDES19, 120 h.
As for `NC(=O)C1NC(c2ccc(Br)cc2)=Nc2c(Cl)cccc21` (stereo unspecified), the pIC50 (commonly the IC50 on a negative log10 scale, so that one unit is a factor of ten) was 7.15.
Regarding `O=C(O)C1NC(c2ccc(N3CCCC3)nc2)=Nc2c(Cl)cccc21` (stereo unspecified), the negative-log IC50 (pIC50) is 7.30.
Take `NC(=O)C1NC(c2cccc(Br)c2)=Nc2cc(C(F)(F)F)ccc21` (stereo unspecified): the pIC50 was 6.59.
Then `COc1ccc2c(c1)CCN(C1=Nc3c(Cl)cccc3C(C)N1)C2=O` (stereo unspecified), with 7.57.
Turning to `CC1(C(=O)O)NC(c2ccc(Br)cc2)=Nc2c(Cl)cccc21` (stereo unspecified), the negative-log IC50 (pIC50) is 6.89.
Turning to `COC(=O)C1NC(c2ccc(Br)cc2)=Nc2c(Cl)cccc21` (stereo unspecified), the pIC50 is 6.48.
